Reference: patent EP0085842A1, “Antimycosic agents” (BAYER AG, priority 1982, dated 1983)
Converted amounts (≈) assume the structure as drawn.

Key:
Trichophyton mentagr. = assay: Antimycotic in-vitro activity, serial dilution test (MIC); type: cell-based, Trichophyton mentagrophytes; details: Sabouraud's milieu d'epreuve, 20°C, 96 h, inoculum 5 x 10^4 Keime/ml, read-out: MHK-Werte in γ/ml Nährmedium Trichophyton mentagr.
Experimental: (§1) Versuchsbeschreibung: • Die in-vitro-Prüfungen wurden im Reihenverdünnungstest mit Keiminokula von durchschnittlich 5 x 10^4 Keimen/ml Substrat durchgeführt. Als Nährmedium dienten • a) für Dermatophyten und Schimmelpilze: Sabouraud's milieu d'epreuve • b) für Hefen: • Fleischextrakt-Traubenzucker-Bouillon.
(§2) Die Bebrütungstemperatur betrug 20°C, die Bebrütungsdauer lag bei 24 bis 96 Stunden bei Hefen und 96 Stunden bei Dermatophyten und Schimmelpilzen.

Torulopsis glabrata = assay: as above; type: cell-based; details: Nakaseomyces glabratus; Fleischextrakt-Traubenzucker-Bouillon, 20°C, 24 to 96 h, inoculum 5 x 10^4 Keime/ml; read-out: MHK-Werte in γ/ml Nährmedium Torulopsis glabrata
Experimental: as §1, §2

Aspergillus fumigatus = assay: as above; type: cell-based; details: Sabouraud's milieu d'epreuve, 20°C, 96 h, inoculum 5 x 10^4 Keime/ml, read-out: MHK-Werte in γ/ml Nährmedium Aspergillus fumigatus
Experimental: as §1, §2

Candida albicans = assay: as above; type: cell-based; details: Fleischextrakt-Traubenzucker-Bouillon, 20°C, 24 to 96 h, inoculum 5 x 10^4 Keime/ml, read-out: MHK-Werte in γ/ml Nährmedium Candida albicans
Experimental: as §1, §2

Microsporum canis = assay: as above; type: cell-based; details: Sabouraud's milieu d'epreuve, 20°C, 96 h, inoculum 5 x 10^4 Keime/ml, read-out: MHK-Werte in γ/ml Nährmedium Microsporum canis
Experimental: as §1, §2

Candida-Zellen = assay: Antimycotic in-vivo activity (oral) in mouse candidosis; set-up: species or system Mäuse vom Typ SPF-CF1; key to Wirkung: +++++: sehr gute Wirkung = 90 % Überlebende am 6.Tag p.i.; ++++: gute Wirkung = 80 % Überlebende am 6.Tag p.i.; +++: Wirkung = 60 % Überlebende am 6.Tag p.i.; ++: schwache Wirkung = 40 % Überlebende am 6.Tag p.i.; +: Spur Wirkung = unter 40 % Überlebende am 6.Tag p.i.; k.W.: keine Wirkung; details: for Wirkung: mice infected i.v. with Candida, oral 50 - 100 mg/kg one hour before and seven hours after infection, survivors on day 6 p.i.; for Wirkung compared with known compounds (A), (B), (C) and (D): mouse candidosis, oral 50 - 100 mg/kg
Experimental: Mäuse vom Typ SPF-CF1 wurden intravenös mit 1 - 2 x 10^6 logarithmisch wachsenden Candida-Zellen, die in physiologischer Kochsalzlösung suspendiert werden, infiziert. Eine Stunde vor und sieben Sunden nach der Infektion werden die Tiere mit jeweils 50 - 100 mg/kg Körpergewicht der Präparate oral behandelt.
Unbehandelte Tiere starben 3 bis 6 Tage post infektionem. Die Überlebensrate am 6. Tag post infektionem betrug bei unbehandelten Kontrolltieren etwa 5 %.
+++++ = sehr gute Wirkung = 90 % Überlebende am 6.Tag p.i. ++++ = gute Wirkung = 80 % Überlebende am 6.Tag p.i. +++ = Wirkung = 60 % Überlebende am 6.Tag p.i. ++ = schwache Wirkung = 40 % Überlebende am 6.Tag p.i. + = Spur Wirkung = unter 40 % Überlebende am 6.Tag p.i. k.W. = keine Wirkung

SMILES | MIC (Trichophyton mentagr.) | MIC (Torulopsis glabrata) | MIC (Aspergillus fumigatus) | MIC (Candida albicans) | MIC (Microsporum canis) | Wirkung (Candida-Zellen) | Wirkung compared with known compounds (A), (B), (C) and (D) (Candida-Zellen)
Cc1ccc(OCC(O)(Cn2cncn2)C(C)(C)CF)cc1 (centres unmarked) [Beispiel 6] | 2 µg/mL (≈ 6.51 µM) | 4 µg/mL (≈ 13 µM) | 2 µg/mL (≈ 6.51 µM) | < 1 µg/mL | 4 µg/mL (≈ 13 µM) |  | 
CC(C)(CF)C(O)(CSc1ccccc1Cl)Cn1cncn1 (centres unmarked) [Beispiel 11] | 2 µg/mL (≈ 5.82 µM) | 16 µg/mL (≈ 46.5 µM) | 8 µg/mL (≈ 23.3 µM) | < 1 µg/mL | 4 µg/mL (≈ 11.6 µM) |  | 
COCC(C)(C)C(O)(COc1ccc(F)cc1)Cn1cncn1 (centres unmarked) [Beispiel 20] | 2 µg/mL (≈ 6.18 µM) | 2 µg/mL (≈ 6.18 µM) | 32 µg/mL (≈ 99 µM) | < 1 µg/mL | 8 µg/mL (≈ 24.7 µM) |  | 
CC(CF)(CF)C(O)(CCc1ccc(Cl)cc1)Cn1ccnc1 (centres unmarked) [Beispiel 37] | 4 µg/mL (≈ 11.7 µM) | 2 µg/mL (≈ 5.83 µM) | 2 µg/mL (≈ 5.83 µM) | 4 µg/mL (≈ 11.7 µM) | 16 µg/mL (≈ 46.7 µM) | ++++ (gute Wirkung = 80 % Überlebende am 6.Tag p.i.) | bessere Wirkung
CC(C)(CF)C(O)(CCc1ccc(Cl)cc1Cl)Cn1ccnc1 (centres unmarked) [Beispiel 38] | 4 µg/mL (≈ 11.1 µM) | 2 µg/mL (≈ 5.57 µM) | 16 µg/mL (≈ 44.5 µM) | < 1 µg/mL | 8 µg/mL (≈ 22.3 µM) | +++ (Wirkung = 60 % Überlebende am 6.Tag p.i.) | bessere Wirkung
C=CC(C)(C)C(O)(COc1ccc(-c2ccccc2)cc1)Cn1cncn1 (centres unmarked) [Beispiel 4, 4-(4-Biphenylyloxymethyl)-3,3-dimethyl-4-hydroxy-5-(1,2,4-triazol-1-yl)-1-penten] | < 1 µg/mL | 32 µg/mL (≈ 88 µM) | < 1 µg/mL | < 1 µg/mL | < 1 µg/mL | +++++ (sehr gute Wirkung = 90 % Überlebende am 6.Tag p.i.) | bessere Wirkung
Cc1ccccc1OCC(O)(Cn1ccnc1)C(C)(C)C (centres unmarked) [(C), reference compound] | 32 µg/mL (≈ 111 µM) | > 64 µg/mL | > 64 µg/mL | 32 µg/mL (≈ 111 µM) |  | k.W. | 
CC(C)(COc1ccc(Cl)cc1)C(O)(CCc1ccc(Cl)cc1)Cn1cncn1 (centres unmarked) [Beispiel 29] | < 1 µg/mL | 2 µg/mL (≈ 4.6 µM) | < 1 µg/mL | 16 µg/mL (≈ 36.8 µM) | 2 µg/mL (≈ 4.6 µM) |  | 
Cc1ccccc1OCC(O)(Cn1cncn1)C(C)(C)C (centres unmarked) [(B), reference compound] | 4 µg/mL (≈ 13.8 µM) | > 64 µg/mL | 32 µg/mL (≈ 111 µM) | 32 µg/mL (≈ 111 µM) | 4 µg/mL (≈ 13.8 µM) | k.W. | 

Continued, in another order:

MIC (Trichophyton mentagr.) | MIC (Torulopsis glabrata) | MIC (Aspergillus fumigatus) | MIC (Candida albicans) | MIC (Microsporum canis) | SMILES | Wirkung (Candida-Zellen) | Wirkung compared with known compounds (A), (B), (C) and (D) (Candida-Zellen)
< 1 µg/mL | 4 µg/mL (≈ 11.2 µM) | 4 µg/mL (≈ 11.2 µM) | < 1 µg/mL | 8 µg/mL (≈ 22.5 µM) | C=CC(C)(C)C(O)(COc1ccc(Cl)cc1Cl)Cn1cncn1 (centres unmarked) [Beispiel 23] | + (Spur Wirkung = unter 40 % Überlebende am 6.Tag p.i.) | bessere Wirkung
< 1 µg/mL | < 1 µg/mL | < 1 µg/mL | < 1 µg/mL | 2 µg/mL (≈ 5.29 µM) | CC(C)(CF)C(O)(CSc1ccc(Cl)c(Cl)c1)Cn1cncn1 (centres unmarked) [Beispiel 12] | ++++ (gute Wirkung = 80 % Überlebende am 6.Tag p.i.) | bessere Wirkung
< 1 µg/mL | 2 µg/mL (≈ 6.14 µM) | < 1 µg/mL | < 1 µg/mL | < 1 µg/mL | CC(C)(C)C(O)(CSc1ccc(Cl)cc1)Cn1cncn1 (centres unmarked) [Beispiel 3, 2-(4-Chlorphenylthiomethyl)-3,3-dimethyl-1-(1,2,4-triazol-1-yl)-butan-2-ol] | ++++ (gute Wirkung = 80 % Überlebende am 6.Tag p.i.) | bessere Wirkung
< 1 µg/mL | < 1 µg/mL | < 1 µg/mL | < 1 µg/mL | < 1 µg/mL | CC(C)(Oc1ccc(Cl)cc1)C(O)(CCc1ccc(Cl)cc1)Cn1ccnc1 (centres unmarked) [Beispiel 34] |  | 
< 1 µg/mL | < 1 µg/mL | < 1 µg/mL | 4 µg/mL (≈ 8.55 µM) | < 1 µg/mL | CC(C)(COc1ccc(Cl)cc1Cl)C(O)(CCc1ccc(Cl)cc1)Cn1ccnc1 (centres unmarked) [Beispiel 35] |  | 
